In PubChem BioAssay (NCI) one finds TGI data, which are given here for 14 molecules.

Among the test systems are CAKI-1 renal; COLO 205 colon; HL-60(TB) leukemia; HT29 colon; K-562 leukemia; NCI-H522 lung; OVCAR-8 ovarian; PC-3 prostate; SR leukemia; SW-620 colon.
Common to all, as to assay: NCI tumour cell line growth inhibition, 48 h

The structures appear in SMILES notation.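 48-hour exposure; five concentrations; linearly interpolated endpoints. TGI: total growth inhibition.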

For `CC(C)c1ccc(/C=C2/C=C(c3ccc4ccccc4c3)OC2=O)cc1`, the TGI in the assay with CAKI-1 renal is greater than 100 µM; in the assay on COLO 205 colon, 76.1 µM; in the assay on HL-60(TB) leukemia it was 39.8 µM; in the assay with HT29 colon, greater than 100 µM; in the assay with K-562 leukemia, greater than 85.3 µM; in the assay on NCI-H522 lung it was 23.5 µM. Besides, the TGI in the assay on OVCAR-8 ovarian is greater than 100 µM; in the assay on PC-3 prostate, greater than 100 µM; in the assay with SR leukemia it was greater than 52.4 µM; in the assay with SW-620 colon, greater than 100 µM.
Turning to `Cc1ccccc1-n1c(=O)c2ncn(CCCl)c2n(-c2ccccc2C)c1=S`, the TGI with CAKI-1 renal, in the assay with COLO 205 colon, with HL-60(TB) leukemia, with HT29 colon, in the assay on K-562 leukemia and in the assay with NCI-H522 lung was greater than 100 µM in each case. Moreover, the TGI in the assay on OVCAR-8 ovarian, in the assay on PC-3 prostate, with SR leukemia and in the assay with SW-620 colon was greater than 100 µM each time.
Regarding `CC[C@@]1(C[C@H]2C[C@@]3(C(=O)OC)c4[nH]c5ccccc5c4CCN3C2=O)COC2(CCCCC2)O1`, the TGI with CAKI-1 renal, in the assay on COLO 205 colon, in the assay with HL-60(TB) leukemia, with HT29 colon, in the assay with K-562 leukemia and in the assay on NCI-H522 lung was greater than 100 µM throughout. Besides, the TGI in the assay on OVCAR-8 ovarian, in the assay on PC-3 prostate and in the assay with SR leukemia was greater than 100 µM in each case.
Consider `CCNC(=S)N/N=C/c1cc([N+](=O)[O-])ccc1O`, for which the TGI in the assay with COLO 205 colon is greater than 100 µM; in the assay with HL-60(TB) leukemia, 40.8 µM; in the assay on HT29 colon it was greater than 100 µM; with K-562 leukemia it was greater than 100 µM; with NCI-H522 lung, 59.3 µM; with OVCAR-8 ovarian, greater than 100 µM. The TGI with PC-3 prostate was greater than 100 µM; with SR leukemia, 59.3 µM; in the assay on SW-620 colon, greater than 100 µM.
`COc1cc([C@@H]2c3cc4c(cc3[C@@H](Nc3ccc([N+](=O)[O-])cc3C(=O)c3ccccc3)[C@H]3COC(=O)[C@H]23)OCO4)cc(OC)c1OC`: the TGI in the assay on CAKI-1 renal is greater than 100 µM; in the assay with HT29 colon it was greater than 100 µM; in the assay on K-562 leukemia it was greater than 100 µM; in the assay on NCI-H522 lung it was greater than 51 µM; with OVCAR-8 ovarian it was greater than 100 µM; with PC-3 prostate it was greater than 100 µM. Further, the TGI with SR leukemia and in the assay on SW-620 colon was greater than 100 µM in each case.
`O=[N+]([O-])/C(C(Cl)=C(Cl)Cl)=C(\SCc1ccccc1)N1CCCCC1`: the TGI in the assay on CAKI-1 renal is greater than 100 µM; in the assay with COLO 205 colon, 34.8 µM; in the assay on HL-60(TB) leukemia it was 29.6 µM; with HT29 colon, 82.4 µM; in the assay with K-562 leukemia, greater than 100 µM; in the assay with NCI-H522 lung, 39 µM. In addition, the TGI was 54.5 µM with OVCAR-8 ovarian, 74.8 µM in the assay on PC-3 prostate and greater than 100 µM with SR leukemia.
Turning to `Cc1cc(O)c2c(=O)c3ccccc3[nH]c2c1`, the TGI with CAKI-1 renal was 90.6 µM; in the assay with COLO 205 colon, 42 µM; in the assay on HL-60(TB) leukemia, 64.7 µM; in the assay on HT29 colon it was 38 µM; in the assay with NCI-H522 lung it was 16 µM; with OVCAR-8 ovarian it was 70.2 µM. In addition, the figures for the TGI in the assay on PC-3 prostate, with SR leukemia and with SW-620 colon were 77.3 µM, 52.6 µM and greater than 100 µM, respectively.
Regarding `O=c1[nH]cc(N=Cc2cc(Cl)cc(Cl)c2O)c(=O)[nH]1`, the TGI was 57.7 µM in the assay on CAKI-1 renal; 57.7 µM in the assay on COLO 205 colon; 46.9 µM with HL-60(TB) leukemia; 60.8 µM with HT29 colon; greater than 100 µM in the assay with K-562 leukemia; 65.3 µM in the assay on NCI-H522 lung. Besides, the TGI with OVCAR-8 ovarian was greater than 100 µM; in the assay on PC-3 prostate it was 98.3 µM; in the assay with SR leukemia, 57.1 µM.
In the case of `c1ccc(N=C2SC3=Nc4cccc5cccc(c45)N3C2=Nc2ccccc2)cc1`, the TGI with CAKI-1 renal, in the assay with COLO 205 colon, in the assay on HL-60(TB) leukemia, in the assay on HT29 colon, in the assay with K-562 leukemia and in the assay on NCI-H522 lung was greater than 100 µM throughout. Moreover, the TGI with OVCAR-8 ovarian, with PC-3 prostate and with SR leukemia was greater than 100 µM each time.
As to `Cc1ccc(SCC(CSCCO)OCn2cnc3c2NC(N)=NC32OCCO2)cc1` (stereo unspecified), the TGI in the assay on CAKI-1 renal, in the assay on HL-60(TB) leukemia, in the assay with HT29 colon, in the assay on K-562 leukemia, with NCI-H522 lung and in the assay with OVCAR-8 ovarian was greater than 100 µM in each case. Moreover, the TGI in the assay with PC-3 prostate, with SR leukemia and in the assay on SW-620 colon was greater than 100 µM throughout.
As for `Oc1ccc(-c2nc(-c3cccnc3)c(-c3ccc(F)cc3)[nH]2)cc1`, the TGI in the assay on CAKI-1 renal was found to be 78.6 µM; with COLO 205 colon, 36.8 µM; in the assay on HL-60(TB) leukemia, 52 µM; with HT29 colon, 32.5 µM; with K-562 leukemia it was 54.6 µM; with OVCAR-8 ovarian, 34.3 µM. Also, the TGI in the assay on PC-3 prostate worked out at 35.2 µM; with SR leukemia, 85 µM; in the assay with SW-620 colon, 35.5 µM.
With `CCC1(O)CC2CC(=O)OC2C1O` (stereo unspecified), the TGI with CAKI-1 renal, in the assay on COLO 205 colon, in the assay with HT29 colon, in the assay on K-562 leukemia, with NCI-H522 lung and with OVCAR-8 ovarian was greater than 100 µM in each case. The TGI in the assay on PC-3 prostate, with SR leukemia and with SW-620 colon was greater than 100 µM throughout.
For the molecule `Cc1cccc(/C=N/NC(=S)Nc2ccccc2)n1`, the TGI with CAKI-1 renal was greater than 42.3 µM; with HL-60(TB) leukemia it was greater than 24.7 µM; in the assay with HT29 colon it was greater than 100 µM; in the assay with K-562 leukemia, greater than 100 µM; in the assay with OVCAR-8 ovarian, 8.92 µM; in the assay on PC-3 prostate, greater than 91.1 µM. Further, the TGI in the assay on SR leukemia and with SW-620 colon was greater than 100 µM throughout.
As to `CC1(C)N=C(/C(Cl)=[N+](/[O-])C(=O)c2ccc(F)cc2)C(C)(C)N1O`, the TGI was 34.5 µM in the assay on CAKI-1 renal; 38.2 µM in the assay with COLO 205 colon; 27.3 µM with HL-60(TB) leukemia; 41 µM in the assay with HT29 colon; 17.3 µM in the assay with K-562 leukemia; 33.9 µM in the assay on OVCAR-8 ovarian. Besides, the TGI with PC-3 prostate amounted to 31.3 µM; in the assay on SR leukemia, 27.8 µM; in the assay with SW-620 colon it was 39.2 µM.
